Results from patent US20150073008A1, “Topical Application of Vinca Alkaloids for the Treatment of Actinic Keratosis” (Merz Pharma GmbH & Co. KGaA, priority 2013, published 2015).
Structures can show the parent of a compound that is named as a salt. Where two headings read alike, the source gives them in different places.

Assays:
Stability at pH 5.5 = format: physicochemical
Method: Some topical formulations may have a reduced stability at a temperature of 37° C. and a pH-value of 7 or more, e.g. a pH-value of 7.4.

SCC-111 cells [1] = conditions: for DCF-value: after repeating the experiments several times
SCC-111 cells [2] = assay: cells; conditions: Homo sapiens, read-out: in vitro IC50-value (in SCC-111 cells)
[3] = Dermal absorption study with human skin (Franz diffusion cells, 3H-API); conditions: different concentrations and formulations (cream, liposomes, hydro-tops)
[4] = tested on: human skin (Leiden epidermal skin); assay: Methylthiazol Tetrazolium-Assay (MTT) skin irritation, in vitro human skin model; format: cell-based; conditions: doses of 100-times the in vitro IC50-values; irritant = metabolic activity of skin model reduced to ≦50%
Source text: This leads to the option to apply the vinca-compositions not only to single affected skin lesions (“spots”) but also to larger areas of the skin, e.g. for “field treatment”, and often even >5% (or >10%) of the skin surface (of the individual).

[5] = tested on: proliferating and non-proliferating cells; assay: Comparative test of cell density as a function of time (normal and high cell density); format: cell-based
Solubility = conditions: pH 6.5
[6] = IC50 in 0% FBS divided by IC50 in 20% FBS, SCC-111 cells
[7] = read-out: in vitro IC50-value (in SCC-111 cells), SCC-111 cells, serum condition not stated

Row | stability (compound remaining) (Stability at pH 5.5; buffer, 168 h, pH 5.5) [%] | IC50 (SCC-111 cells [2]) [nM] | dermal absorption (in words) [3] | Compound | DCF-value (SCC-111 cells [1]; [6]) | skin irritation rating in MTT assay [4] | other results
1 | 99.6 | 0.92 | good dermal absorption | CC[C@]1(O)C[C@H]2CN(CCc3c([nH]c4ccccc34)[C@@](C(=O)OC)(c3cc4c(cc3OC)N(C=O)[C@H]3[C@@](O)(C(=O)OC)[C@H](OC(C)=O)[C@]5(CC)C=CCN6CC[C@]43[C@@H]65)C2)C1 [Vincristine, Vincristine sulfate] | 5.86 | not rated as irritant | solubility in water (pH 5.5): 0.57 % by weight
2 | – | – | – | COc1cccc2c1C(=O)c1c(O)c3c(c(O)c1C2=O)C[C@@](O)(C(=O)CO)C[C@@H]3O[C@H]1C[C@H](N)[C@@H](O)[C@H](C)O1 [Epirubicin, Epirubicin HCL] | 6.05 | – | –
3 | 99.5 | 1.34 | good dermal absorption | CCC1=C[C@@H]2CN(C1)Cc1c([nH]c3ccccc13)[C@@](C(=O)OC)(c1cc3c(cc1OC)N(C)[C@H]1[C@@](O)(C(=O)OC)[C@H](OC(C)=O)[C@]4(CC)C=CCN5CC[C@]31[C@@H]54)C2 [Vinorelbine] | 6.42 | not rated as irritant | solubility (pH 6.5): 0.7%
4 | 98.8 | – | good dermal absorption | CC[C@]1(O)C[C@@H]2CN(CCc3c([nH]c4ccccc34)[C@@](C(=O)OC)(c3cc4c(cc3OC)N(C)[C@H]3[C@@](O)(C(N)=O)[C@H](O)[C@]5(CC)C=CCN6CC[C@]43[C@@H]65)C2)C1 [Vindesine, Vindesine sulfate hydrate] | 11.43 | not rated as irritant | DCF-value (differential cytotoxicity factor) from FIGS. 1 and 2 (SCC-111 cells [1]; IC50 in 0% FBS divided by IC50 in 20% FBS, single example experiment): > 10; IC50 (SCC-111 cells [1]; read-out: IC50-value, 0% FBS medium cultivated cells (FIG. 2), SCC-111, 0% FBS (low proliferation), DNA-content, 72 hours): 3.5 nM; IC50 (SCC-111 cells [1]; read-out: IC50-value, 20% FBS medium cultivated cells (FIG. 1), SCC-111, 20% FBS (high proliferation), DNA-content, 72 hours): 0.34 nM; IC50 (SCC-111 cells [1]; [7]): 0.57 nM
5 | – | – | – | COc1cc([C@@H]2c3cc4c(cc3[C@@H](O[C@@H]3O[C@@H]5CO[C@@H](c6cccs6)O[C@H]5[C@H](O)[C@H]3O)[C@H]3COC(=O)[C@H]23)OCO4)cc(OC)c1O [Teniposide] | 5.76 | – | –
6 | – | 960 | – | O=c1[nH]cc(F)c(=O)[nH]1 [Example 5-FU, 5-Fluorouracil] | 0.73 | – | effect on number of cells at normal (proliferating) and high (non-proliferating) cell density [5]: cells were affected, independent of their proliferation-status
7 | – | – | – | Vinblastine sulfate hydrate | 19.87 | not rated as irritant | stability (compound remaining) (Stability at pH 5.5; pH 5.5, test for 7 days, 5° C.): 97%; IC50 (SCC-111 cells [1]; [7]): 0.87 nM; solubility (Solubility): 0.25%
